Patent publication US20210210190A1, “Diagnostic Method” (Amazentis SA, priority 2019, published 2021)
Where “and” joins values, the source holds several entries; their conditions need not be identical. Identical values can stand only once.

Columns and labels:
[1] = Study of pomegranate juice and oral urolithin A: urolithin A glucuronide in dried blood spots (Example 3); format: in vivo, human; details: dried blood spot, 24 hours after 500 mg Urolithin A softgel capsule; individual subjects 1-7; listed as UA
Method: A study was conducted in seven subjects. At the beginning of the study a sample of capillary blood via a finger prick was taken from each subject and 15-20 uL of whole blood was dried onto a dried blood sample (DBS) filter paper sample card (Whatman, Little Chalfont, Buckinghamshire, UK). A minimum of 2 spots per sampling were collected for each time-point. At T0 i.e. baseline sample, subjects ingested 80 ml pomegranate juice (freshly prepared/). At 24 hours following pomegranate juice intake, a further dried blood spot sample was taken and 15-20 uL of whole blood was dried onto a DBS filter paper card. Following this, subjects ingested 500 mg of Urolithin A in a softgel capsule and then at 48 hours (or 24 hours following UA intake), a further dried blood spot sample was taken and 15-20 uL of whole blood was dried onto DBS filter paper sample card.
This analytical method was developed to analyse whole blood spot samples collected on dry blood spot sample cards (DBS Filter card) in Example 3.
Each dried blood spot was punched from cards using a 6 mm diameter puncher and transferred into a tube. Afterwards 150 μL of methanol containing the internal standard was added. […]
The quantification of UA-glucuronide was performed by column separation with reversed-phase chromatography followed by detection with triple-stage quadrupole MS/MS in the selected reaction monitoring mode.

[2] = Single ascending dose study in healthy elderly subjects: Urolithin A glucuronide in urine (Example 6, Part A); format: in vivo, human; details: mean ± standard error
Method: A single (Part A) and multiple (Part B) dose study of urolithin A was conducted to evaluate the safety, tolerability, pharmacokinetics and pharmacodynamics profile in healthy elderly subjects.
Part A: The study was a double-blind, randomized, single ascending doses, study in 24 healthy elderly male and female volunteers. Each subject was randomized for two subsequent doses in three cohorts.
1100 mg soft gel capsule containing 250 mg of urolithin A (as described in Example 2 above). Soft gel capsules were blister-packed in bulk, Labelling was in accordance with local regulatory specifications and requirements.
Part A: Single oral dose administration on D1 of each period according to the randomisation. The administration took place around 8:00 am with around 200 mL tap water, in sitting position, and under fasting conditions.
Cohort 1 (8 subjects): 250 mg urolithin A (6 subjects) or placebo (2 subjects) capsule soft gel formulation then 2000 mg urolithin A or placebo capsule soft gel formulation. Cohort 2 (8 subjects): 500 mg urolithin A (6 subjects) or placebo (2 subjects) capsule soft gel formulation. Cohort 3 (8 subjects): 1000 mg urolithin A (6 subjects) or placebo (2 subjects) capsule soft gel formulation.
In Part A of the study, total urine was collected during the following intervals: 0-4 h, 4-8 h, 8-12 h, 12-24 h and 24-36 h post-dose. The collected urine volume of each collection period was carefully measured by weight and recorded in the eCRF, as well as the exact start and stop time of the collection interval. Each fraction of collected urine was homogenized and 2 aliquots of 5 mL per interval were kept and stored below −80° C. Following a protocol amendment to extend the blood sampling scheme from 36 to 96 h post-dose, additional spot urine samples were taken 72 and 96 h post-dose but urine was not collected quantitatively.
The concentrations of Urolithin A and its metabolites in urine was determined using validated LC-MS/MS assays. The limit of quantification (LOQ) was 10 ng/mL for Urolithin A in urine and 50 ng/mL for Urolithin A glucuronide and Urolithin A sulphate in urine.

- Urolithin A glucuronide in urine ([2]; 250 mg dose, Predose): 4,114 ± 1,261 ng/mL
- Urolithin A glucuronide in urine ([2]; 250 mg dose, T0-T4 h): 8,536 ± 1,394 ng/mL
- Urolithin A glucuronide in urine ([2]; 250 mg dose, T4 h-T8 h): 31,617 ± 7,637 ng/mL
- Urolithin A glucuronide in urine ([2]; 250 mg dose, T8 h-T12 h): 40,453 ± 9,275 ng/mL
- Urolithin A glucuronide in urine ([2]; 250 mg dose, T12 h-T24 h): 62,817 ± 8,454 ng/mL
- Urolithin A glucuronide in urine ([2]; 250 mg dose, T24 h-T36 h): 33,962 ± 8,708 ng/mL
- Urolithin A glucuronide in urine ([2]; 500 mg dose, Predose): 4,114 ± 1,261 ng/mL
- Urolithin A glucuronide in urine ([2]; 500 mg dose, T0-T4 h): 40,167 ± 6,802 ng/mL
- Urolithin A glucuronide in urine ([2]; 500 mg dose, T96 spot urine): 8,720 ± 3,113 ng/mL
- Urolithin A glucuronide in urine ([2]; 500 mg dose, T4 h-T8 h): 86,758 ± 12,051 ng/mL
- Urolithin A glucuronide in urine ([2]; 500 mg dose, T8 h-T12 h): 63,800 ± 9,043 ng/mL
- Urolithin A glucuronide in urine ([2]; 500 mg dose, T12 h-T24 h): 81,125 ± 10,792 ng/mL
- Urolithin A glucuronide in urine ([2]; 500 mg dose, T24 h-T36 h): 44,242 ± 4,631 ng/mL
- Urolithin A glucuronide in urine ([2]; 500 mg dose, T72 h spot urine): 15,706 ± 3,751 ng/mL
- Urolithin A glucuronide in urine ([2]; 1000 mg dose, Predose): 4,114 ± 1,261 ng/mL
- Urolithin A glucuronide in urine ([2]; 1000 mg dose, T0-T4 h): 70,492 ± 12,094 ng/mL
- Urolithin A glucuronide in urine ([2]; 1000 mg dose, T96 spot urine): 16,335 ± 3,897 ng/mL
- Urolithin A glucuronide in urine ([2]; 1000 mg dose, T4 h-T8 h): 76,417 ± 10,635 ng/mL
- Urolithin A glucuronide in urine ([2]; 1000 mg dose, T8 h-T12 h): 64,967 ± 8,075 ng/mL
- Urolithin A glucuronide in urine ([2]; 1000 mg dose, T12 h-T24 h): 107,983 ± 17,683 ng/mL
- Urolithin A glucuronide in urine ([2]; 1000 mg dose, T24 h-T36 h): 59,575 ± 9,560 ng/mL
- Urolithin A glucuronide in urine ([2]; 1000 mg dose, T72 h spot urine): 29,412 ± 5,717 ng/mL
- Urolithin A glucuronide in urine ([2]; 2000 mg dose, Predose): 4,114 ± 1,261 ng/mL
- Urolithin A glucuronide in urine ([2]; 2000 mg dose, T0-T4 h): 39,500 ± 6,033 ng/mL
- Urolithin A glucuronide in urine ([2]; 2000 mg dose, T96 spot urine): 38,487 ± 12,858 ng/mL
- Urolithin A glucuronide in urine ([2]; 2000 mg dose, T4 h-T8 h): 65,317 ± 10,853 ng/mL
- Urolithin A glucuronide in urine ([2]; 2000 mg dose, T8 h-T12 h): 50,450 ± 5,793 ng/mL
- Urolithin A glucuronide in urine ([2]; 2000 mg dose, T12 h-T24 h): 114,817 ± 12,123 ng/mL
- Urolithin A glucuronide in urine ([2]; 2000 mg dose, T24 h-T36 h): 60,533 ± 12,216 ng/mL
- Urolithin A glucuronide in urine ([2]; 2000 mg dose, T72 h spot urine): 70,567 ± 17,054 ng/mL
SMILES: O=c1oc2cc(O)ccc2c2ccc(O)cc12 [Urolithin A]
- 500 mg single UA dosing 24 h UA levels [1]: 153 ng/mL and 93.0 ng/mL and 98.0 ng/mL and 125 ng/mL and 134 ng/mL and 173 ng/mL
